Entries after “also recorded” stand apart in the source; their conditions may differ. Where a SMILES comes first, the peptide text is derived from it. Where no end group is shown, it is not given here. [ ]: non-standard residue; d: D form. The star is where a group is joined. Palmitoyl = CCCCCCCCCCCCCCCC(=O)*
What was measured:
[1] = Fluorescence microscopy of ThT-stained fibrils (µm-sized aggregates); type: physicochemical; settings: 1 mg/mL stained with 50 µM ThT
Experimental: (§1) Transmission electron microscopy (TEM) measurements, Thioflavin (ThT), zeta-potential measurements for fibril characterization were prepared and conducted according to prior art procedures. […] Fibrils were defined as distinct, if no visible structures could be identified in fluorescence and brightfield microscopy.
Fluorescence microscopy: 1 µL Fibrils (1 mg mL^-1) were stained with 9 µL, 50 µM ThT. 10 µL of the stained fibrils (0.1 mg mL^-1) were placed on a microscopy glass. Fluorescence microscopy measurements were performed on a Leica DMi8 microscope with 10x air objective and equipped with a Leica MC170 HD camera with a filter setting λem = 527/30 nm upon excitation at λex = 480/40 nm) and processed with the Leica LASX software.

[2] = ATR-FT-IR determination of β-sheet content; type: physicochemical; settings: 1 mg/mL in PBS lyophilized; integral at 1630 cm^-1 relative to 1650-1700 cm^-1
Experimental: ATR-FT-IR: ATR-IR spectra acquisition and the calculation of β-sheet content were conducted according prior art procedures. Briefly, FT-IR spectra of solid samples were recorded after lyophilization of fibril solutions using a Bruker Tensor II spectrometer equipped with a diamond crystal as ATR element with a spectral resolution of 2 cm^-1, each spectrum was an average of 64 scans. The data was processed with Origin software. β-sheet amount was determined by calculating the integral of the peak at 1630 cm-1 (β-sheet) relative to the integral between 1650-1700 cm-1 (native structure) from the 2nd derivative of the FT-IR spectra.

HIV-1 = settings: for Infectivity enhancing N fold at 1.3 µM: relative to virus only; for enhancement of HIV-1 infection / transduction (in words): 6.5 µM, 1.3 µM, 0.26 µM;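 on all read-outs here: TZM-bl reporter cells exposed to HIV-1 with peptide fibrils, infection read out as β-galactosidase luminescence, compared with virus alone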
Experimental: HIV-1 Infection Assay with TZM-bl cells: The effect of peptide fibrils on HIV-1 infection was studied via a luminescence assay for β-galactosidase, which was reported by TZM-bl cells upon infection. The HIV-1 infection assay was conducted in three technical replicates and repeated in three independent experiments unless stated otherwise.

HeLa cells = experiment: Confocal laser scanning microscopy and degradation study with PA library and HeLa cells; type: cell-based; settings: for association with cellular membranes: 2 µg added to 20.000 HeLa cells, 30 min
Experimental: In general, the procedure for determine whether a PA is degraded or not, is conducted by confocal laser scanning microscopy of Proteostat stained PAs which are added to Hela cells (2 µg peptide added to 20.000 cells). Microscopy is conducted at day 0 (d0, after 30 min of incubation) and at day 3 (d3, after 72 h of incubation). The number of aggregates >10 µm^2 is counted via 3D object counter in imaged in an area of 1008 µm × 1008 µm.
A PA is considered to be degradable if the number and the size of aggregates are reduced after 3 days. The efficiency is determined by the percentual degradation (aggregate number at d3 / aggregate number at d0). For the number of aggregation three technical replicates were evaluated for each sample. A large deviation represents a nonhomogeneous spatial distribution of aggregates.
Confocal laser scanning microscopy and degradation study with PA library and HeLa cells: Confocal laser scanning microscopy studies were performed for the visualization of the cell-PA interaction. HeLa cells were seeded one day prior to conducting the assay (20,000/well) in an 8-well IBIDI slide. […] The nucleus of the HeLa cells was stained with Hoechst 33342 (NucBlue™, Thermo Fisher Scientific). The peptide solution mixture was transferred to the HeLa cells and incubated for 30 min at 37°C before washing three times with PBS. […] For the evaluation of aggregate degradation, the samples were further incubated at 37°C for 3 d and analyzed without any additional washing step. […] The number of aggregates were determined by counting aggregates larger than the threshold 10 µm^2 in an area of 1008 × 1008 µm and repeated in three technical triplicates.

[3] = TEM of peptide assemblies (fibril formation / assembly); type: physicochemical; settings: for TEM morphology (in words): 1 mg/mL in PBS; for Assembly without hydrophob residue: corresponding peptide without hydrophobic moiety; for Assembly: peptide amphiphile
Experimental: The peptides were predissolved in DMSO to a concentration of 10 mg/mL. The fibril formation was induced by further diluting the solution to a final incubation concentration of 650 µM or 1 mg/mL in PBS as indicated in the text and incubated for 1 d (1 day) at rt (room temperature, 20 °C - 25 °C). Other concentrations as described herein were achieved by further dilution of preformed fibrils.
as §1

| Compound | fluorescent, µm-sized aggregates (ThT staining) [1] | β-sheet amount [2] [%] | infectivity enhancement at 1.3 µM concentration compared to virus only infection (in words) (HIV-1) | TEM morphology (in words) [3] | enhancement of HIV-1 infection / transduction (in words) (HIV-1) | also measured |
| --- | --- | --- | --- | --- | --- | --- |
| CCCCCCCCCCCCCCCC(=O)N[C@@H](CCCCN)C(=O)N[C@@H](Cc1ccc(O)cc1)C(=O)N[C@H](C(=O)N[C@@H](Cc1c[nH]cn1)C(=O)N[C@@H](CCC(N)=O)C(=O)N[C@@H](CC(N)=O)C(=O)N[C@@H](Cc1ccc(O)cc1)C(=O)N[C@H](C(=O)N[C@@H](CCCCN)C(=O)N[C@@H](C)C(=O)N[C@@H](CC(C)C)C(=O)N[C@@H](C)C(=O)NCC(=O)N[C@@H](CCCCN)C(=O)N[C@@H](CC(C)C)C(=O)N[C@H](C(N)=O)C(C)C)[C@@H](C)O)[C@@H](C)CC [Pat26] (Palmitoyl-KYIHQNYTKALAGKLV-NH2) | fluorescent, µm-sized aggregates | 51 | does not enhance infectivity | fibrillar morphologies |  | enhances infectivity at 1.3 µM concentration, times more efficient compared to virus only infection (HIV-1): 5 times; Infectivity enhancing N fold at 1.3 µM (HIV-1): 5±2 N fold; association with cellular membranes (HeLa cells): association with cellular membranes; degradability (in words) (HeLa cells; HeLa cells, 3 days): cannot be degraded; also recorded: not efficiently degradable; also recorded: non-degradable PA; Degradability / % (rel. to initial particles > 10 µm^2) (HeLa cells; HeLa cells, 3 d relative to 30 min): -110%; aggregate number increases (HeLa cells; d3 relative to d0): 110%; Assembly without hydrophob residue [3]: No; Assembly [3]: Yes |
| CC(C)[C@@H](N)C(=O)N[C@@H](C(=O)N[C@@H](C(=O)N[C@H](C)C(=O)N[C@H](C)C(=O)N[C@H](C)C(=O)N[C@H](CCCCN)C(=O)N[C@H](CCCCN)C(=O)N[C@H](CCCCN)C(N)=O)C(C)C)C(C)C [Pat33, vvvaaakkk-NH2] (H-[dV][dV][dV][dA][dA][dA][dK][dK][dK]-NH2) | no fluorescent, µm-sized aggregates | 45 | cannot enhance infectivity | no fibrillar morphologies but amorphous aggregates |  |  |
| ALAAGKK-NH2 [Pat39, ALAAGKK-NH2] | no fluorescent, µm-sized aggregates | 0 | cannot enhance infectivity | no fibrillar morphologies |  |  |
| LLLKK-NH2 [Pat42, LLLKK-NH2] | no fluorescent, µm-sized aggregates | 33 | cannot enhance infectivity | no fibrillar morphologies |  |  |
| RRWQWR-NH2 [Pat41, RRWQWR-NH2] |  | 0 | cannot enhance infectivity | amorphous aggregates |  | association with cellular membranes (HeLa cells): no association with cellular membranes |
| AQAKAK-NH2 [Pat35, AQAKAK-NH2] | no fluorescent, µm-sized aggregates | 29 | cannot enhance infectivity | no fibrillar morphologies but amorphous aggregates |  |  |
| LNGGVKK-NH2 [Pat38, LNGGVKK-NH2] | no fluorescent, µm-sized aggregates | 0 |  | no fibrillar morphologies | not potent enhancers of HIV-1 infection |  |
| KIISFK-NH2 [Pat51, KIISFK-NH2] | no fluorescent, µm-sized aggregates | 38 |  | no fibrillar morphologies | not potent enhancers of HIV-1 infection |  |
| WEALKK-NH2 [Pat36, WEALKK-NH2] | no fluorescent, µm-sized aggregates | 31 | cannot enhance infectivity | no fibrillar morphologies but amorphous aggregates |  |  |
| KGVPGVGK-NH2 [Pat44] |  | 22 | do not enhance infectivity | fibrillar morphologies |  | TEM morphology (in words) ([3]; listed as KGVPGVGK): unexpectedly forming fibrils by themselves |
| CCCCCCCCCCCCCCCC(=O)N[C@@H](CCCNC(=N)N)C(=O)N[C@@H](CCCNC(=N)N)C(=O)N[C@@H](Cc1c[nH]c2ccccc12)C(=O)N[C@@H](CCC(N)=O)C(=O)N[C@@H](Cc1c[nH]c2ccccc12)C(=O)N[C@@H](CCCNC(=N)N)C(N)=O [Pat22, C16-RRWQWR-NH2] (Palmitoyl-RRWQWR-NH2) |  | 0 | does not enhance infectivity | fibrillar morphologies | no infectivity enhancement can be observed | Infectivity enhancing N fold at 1.3 µM (HIV-1): 0±0 N fold; association with cellular membranes (HeLa cells): no association with cellular membranes; Assembly without hydrophob residue [3]: No; Assembly [3]: Yes |
| GGGSSKKK-NH2 [Pat47] | no fluorescent, µm-sized aggregates | 10 |  | no fibrillar morphologies | not potent enhancers of HIV-1 infection |  |
| VVAAHHH-NH2 [Pat43, VVAAHHH-NH2] | no fluorescent, µm-sized aggregates | 0 |  | no fibrillar morphologies | not potent enhancers of HIV-1 infection |  |
| IIQKIK-NH2 [Pat34, IIQKIK-NH2] | no fluorescent, µm-sized aggregates | 31 |  | no fibrillar morphologies | not potent enhancers of HIV-1 infection |  |
| AVAKKK-NH2 [Pat40, AVAKKK-NH2] | no fluorescent, µm-sized aggregates | 29 | cannot enhance infectivity | no fibrillar morphologies but amorphous aggregates |  |  |
| AKAVGK-NH2 [Pat50, AKAVGK-NH2] | no fluorescent, µm-sized aggregates | 33 | cannot enhance infectivity | no fibrillar morphologies but amorphous aggregates |  |  |
| GKVGSK-NH2 [Pat49, GKVGSK-NH2] | no fluorescent, µm-sized aggregates | 4 |  | no fibrillar morphologies | not potent enhancers of HIV-1 infection |  |
| AGGRVK-NH2 [Pat37, AGGRVK-NH2] | no fluorescent, µm-sized aggregates | 0 | cannot enhance infectivity | no fibrillar morphologies |  |  |
| KYIHQNYTKALAGKLV-NH2 [Pat45] | no fluorescent, µm-sized aggregates | 34 |  | no fibrillar morphologies | not potent enhancers of HIV-1 infection |  |
